Test results published in PMC7794297.
Values joined by “and” are separate entries in the source; they are usually repeats but may differ in a detail not shown here. Identical values can stand only once. Like-named read-outs stand apart in the source and are kept apart here.

Assays:
[1] = Equilibration of the thiol-disulfide DCL of building blocks 1-4 followed by HPLC-MS
Method: DMSO percentage is 2.5% v/v. […] DCLs were analyzed by HPLC-MS until equilibration without stirring at 6 °C.
Control DCL. […] DMSO percentage is 2.5% v/v. Regarding Secox catalyzed DCL, different stocks of Secox were carried out in order to study the percentages of Secox. […] The DCLs were prepared at 6 °C without stirring and analyzed in several hours until the complete stabilization.

[2] = Slow DCL system of building blocks 5-8, equilibration by HPLC-MS; settings: slow DCL 5-8; 5% mol (18.3 μM); 20% (v/v) DMSO, pH 7.8, 6 °C; control 192 h
Method: To broaden the scope of selenocystine we tested this catalyst in a slow disulfide-exchange system. The DCL comprised 4 building blocks (5–8)[37], three of them being aliphatic thiols with pKa values around 9 to slow down the exchange reaction (Fig. 7a). Due to solubility issues, a 20% (v/v) DMSO was added and the reaction mixture was diluted. […] The different oligomers were identified by HPLC-MS (Supplementary Figs. 21–30).
Control DCL. […] The DCLs were analyzed until stabilization.

[3] = Spermine-templated DCL of building blocks 2 and 3; settings: two building blocks DCL with spermine; 5% (mol); control 96 h
Method: (§1) Building blocks 2 and 3 equipped with carboxylate moieties to establish interactions with the protonated amine groups of the spermine were allowed to equilibrate at pH 7.8 and 6 °C (Fig. 8a). As expected in our control experiment, the major component in the absence of spermine was the linear tetramer (2)2(3)2. After the addition of spermine, the linear tetramer “decomposed” in order to form mainly the cyclic tetramer of (2)4, and the (3)2 dimer (Fig. 8a). As it was reported, several studies determined that the spermine was threaded through the macrocycle fixing the configuration to a highly symmetric stereoisomer of (2)4[36]. […] The precise composition of the DCL (with and without spermine), was assessed by measuring the relative peak area (RPA). Indeed, the normalized change of RPA was used to quantify the spermine influence in the outcome (Supplementary Fig. 42)[46]. The same template (spermine) was tested in our reference DCL of four building blocks (1–4) in the absence and presence of Secox (Fig. 8b). […] Additionally, two different templates were tested to confirm the absence of conflict between selenocystine and the templating effect. Spermidine and NADPH were introduced in our 4 building blocks DCL (1–4) in the absence and presence of Secox, leading to the amplification of different species and getting the same results as the non-catalyzed DCLs (Supplementary Figs. 44, 45, Supplementary Tables 7–10, and Supplementary Methods).
The DCL was stabilized at 96 h. […] The mixture was stabilized after 24 h. […] The DCL was stabilized at 96 h. […] The DCL was analyzed in 96 h after equilibration. DCLs were performed without stirring at 6 °C and analyzed by HPLC-MS.

[4] = Spermine-templated DCL of building blocks 1-4; settings: four building blocks DCL with spermine; 5% mol
Method: as §1
The mixture was stabilized in 96 h. […] The mixture was stabilized after 24 h. […] It was stabilized in 24 h. […] DCL was equilibrated in 96 h. DCLs were performed without stirring at 6 °C and analyzed by HPLC-MS.

[5] = for Kobs: 2.5% (v/v) DMSO, 190 μM 3, Tris pH 7.8, 6 °C
glucose oxidase (GOx) = glucose oxidase (GOx) (Aspergillus niger, UniProt P13006); assay: GOx tolerance to Secox, Trp emission fluorescence; parameters: purchased Sigma Aldrich
Chain of glucose oxidase (GOx) (P13006 17-605): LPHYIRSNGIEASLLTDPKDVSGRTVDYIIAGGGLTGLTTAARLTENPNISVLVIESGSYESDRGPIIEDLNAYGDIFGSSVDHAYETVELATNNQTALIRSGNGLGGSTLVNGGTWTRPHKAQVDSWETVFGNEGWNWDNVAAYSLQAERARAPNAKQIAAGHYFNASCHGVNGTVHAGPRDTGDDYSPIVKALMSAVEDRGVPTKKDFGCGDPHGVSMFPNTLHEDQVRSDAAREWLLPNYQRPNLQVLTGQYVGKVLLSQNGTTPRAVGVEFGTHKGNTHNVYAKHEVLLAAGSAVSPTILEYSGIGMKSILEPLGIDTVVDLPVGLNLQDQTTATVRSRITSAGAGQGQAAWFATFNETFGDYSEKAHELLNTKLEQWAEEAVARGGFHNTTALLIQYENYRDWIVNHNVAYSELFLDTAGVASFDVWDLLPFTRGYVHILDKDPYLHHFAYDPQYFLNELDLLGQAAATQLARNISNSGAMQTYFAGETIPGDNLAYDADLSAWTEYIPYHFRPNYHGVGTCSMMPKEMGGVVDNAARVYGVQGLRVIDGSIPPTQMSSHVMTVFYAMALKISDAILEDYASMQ

scrambled RNase A [6] = target: T1, scrambled RNase A (Bos taurus, UniProt P61823); assay: Folding of scrambled RNase A at pH 7.8 (cCMP hydrolysis); settings: for V0: Secox / GSH 1 mM/5 mM
T1 sequence (P61823 27-150): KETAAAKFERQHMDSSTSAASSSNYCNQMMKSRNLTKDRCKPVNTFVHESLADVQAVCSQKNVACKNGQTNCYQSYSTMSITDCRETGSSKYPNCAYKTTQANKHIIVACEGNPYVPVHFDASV

scrambled RNase A [7] = target: T1, scrambled RNase A; assay: Folding of scrambled RNase A at pH 5.4 (cCMP hydrolysis); settings: in <2 h

`N[C@@H](C[Se][Se]C[C@H](N)C(=O)O)C(=O)O` [Secox, selenocystine] showed a DCL equilibration time ([1]; 190 μM as fifth building block, Tris 20 mM pH 7.8, 6 °C, control 4 days) of 24 h, a DCL equilibration time ([1]; 1% mol (5.7 μM), pH 7.8, 6 °C, control 96 h) of 72 h and a DCL equilibration time ([1]; 2.5% mol (14.25 μM), pH 7.8, 6 °C, control 96 h) of 48 h. The DCL equilibration time ([1]; 5% mol (28.5 μM), pH 7.8, 6 °C, control 96 h) was 24 h, the DCL equilibration time ([1]; 10% mol (57 μM), pH 7.8, 6 °C, control 96 h) was 24 h and the DCL equilibration time [2] was 60 h. For the same compound, the DCL equilibration time [3] was 24 h, the DCL equilibration time [4] was 24 h and the Kobs ([5]; 1% (mol)) was 0.091 ± 0.002 M⁻¹ s⁻¹. The “time until total completion of homodimerization” value (shortened to “time until total completion”) ([5]; 1% mol) was 3 days, the “time until total completion” value ([5]; 2.5% mol) was 2 days and the Kobs ([5]; 5% (mol) catalyst, uncatalyzed 0.014 ± 0.001) was 0.259 ± 0.009 M⁻¹ s⁻¹. For the same compound, the “acceleration over the uncatalyzed reaction” value ([5]; 5% Secox) was 18 fold, the “time until total completion” value ([5]; 5% mol) was 0.917 days and 1 days and the “time until total completion” value ([5]; 10% mol) was 0.75 days. The “Wavelenght (nm) of GOx Trp fluorescence emission (Supplementary Figure 47 b)” value (“Wavelenght (nm)” below) (glucose oxidase (GOx); 1 % Secox) was 329 nm, the “Wavelenght (nm)” value (glucose oxidase (GOx); 2.5 % Secox) was 329 nm and the “Wavelenght (nm)” value (glucose oxidase (GOx); 5% Secox) was 329 nm. The “Wavelenght (nm)” value (glucose oxidase (GOx); 7.5 % Secox) was 329 nm, the “Wavelenght (nm)” value (glucose oxidase (GOx); 10 % Secox) was 329 nm and the “Wavelenght (nm)” value (glucose oxidase (GOx); 30 % Secox) was 329 nm. For the same compound, the “Wavelenght (nm)” value (glucose oxidase (GOx); 50 % Secox) was 329 nm, the “Wavelenght (nm)” value (glucose oxidase (GOx); 100 % Secox) was 329 nm and the “effect on GOx stability (Trp emission maximum)” value (glucose oxidase (GOx); whole range of concentrations measured, up to 100 % mol) was “No shift was observed”. For the same compound, the “effect on scrambled RNase A folding” value (scrambled RNase A [6]; 20 mM Secox / 100 mM GSH, pH 7.8) was “partial inactivation of the protein”, the “V0” value (scrambled RNase A [6]; 33 min) was 73.3333 min⁻¹ and the “V0” value (scrambled RNase A [6]; 65 min) was 91.6667 min⁻¹. For the same compound, the “V0” value (scrambled RNase A [6]; 95 min) was 91.6667 min⁻¹, the “V0” value (scrambled RNase A [6]; 123 min) was 100 min⁻¹ and the “V0” value (scrambled RNase A [6]; 188 min) was 101.667 min⁻¹. The “V0” value (scrambled RNase A [6]; 232 min) was 98.3333 min⁻¹, the “V0” value (scrambled RNase A [6]; 356 min) was 105 min⁻¹ and the “V0” value (scrambled RNase A [6]; 1440 min) was 101.667 min⁻¹. For the same compound, the “yield of the correctly folded enzyme” value (scrambled RNase A [6]; pH 7.8, 1 mM Secox/5 mM GSH, first 65 min) was 92%, the “increase of refolding rate by replacing GSSG with Secox” value (scrambled RNase A [6]; scrambled RNase A) was “five times” and the “yield of native RNase A” value (scrambled RNase A [7]) was 75%.
